In US20170087562A1, “METHOD FOR DETERMINING TREATMENT RESPONSE OF CELLS” (NATIONAL CHENG KUNG UNIVERSITY, priority 2015, published 2017):

Columns and labels:
lung cancer cells AS2 [1] = assay: Corresponding cell analysis after Taxol (cell death, proliferation inhibition/cells kill); assay type: cell-based
Excerpt: The moving speed of the cell can be obtained by analyzing the moving distance perpendicular to the electrode at different time points. […]. […] The treatment response includes proliferation inhibition/cells kill which are the important indicators for determining whether the chemotherapy is effective on clinical. Therefore, the conclusion of the treatment response of cells to the treatment method can be obtained fast by using electrorotation, and the treatment effect of the clinical treatment can be estimated with high reliability, so that the analysis period indeed can be substantially shorten (24 hrs v.s. 48 hrs).

lung cancer cells AS2 [2] = assay: Traveling-wave dielectrophoresis moving speed of cells after Taxol; assay type: cell-based; conditions: 24 hours after treatment
Excerpt: The principle of the traveling-wave dielectrophoresis is similar with the electrorotation. The test cells can be pushed away by the electrodes when applying a negative electrophoresis force (nDEP) through two set of parallel electrode 13 and 14, so that the influence on the moving condition resulting from the friction between the test cells and chip surface can be reduced. The two set of parallel electrode 13 and 14 individually include several electrodes having a width ranged from 0.1 to 1000 microns, preferably 0.5 to 100 microns, for example 1 micron, 20 microns, 40 microns, 50 microns, or 60 microns; the width of the intervals ranged from 0.1 to 1000 microns, preferably 0.5 to 100 microns, for example 1 micron, 20 microns, 40 microns, 50 microns, or 60 microns. Moreover, in this uneven electric field, the electric signal has a periodic variation in value and direction (such as a sine wave), for example, 360/N of sine wave signal are subsequently applied to the parallel electrodes, wherein N is preferably equal to 4, so that the sine wave of the electrodes have intervals of 90 degrees from each other, but N is not limited thereto. The wave signal of each electrode continuously changes the phase thereof by time to provide the source of the moving force for traveling-wave electrophoresis. […]

Structure (SMILES): CC(=O)O[C@H]1C(=O)[C@@]2(C)[C@H]([C@H](OC(=O)c3ccccc3)[C@]3(O)C[C@H](OC(=O)[C@H](O)[C@@H](NC(=O)c4ccccc4)c4ccccc4)C(C)=C1C3(C)C)[C@]1(OC(C)=O)CO[C@@H]1C[C@@H]2O [Taxol]
- proliferation inhibition/cells kill (lung cancer cells AS2 [1]; 24 hours): obvious
- cell death (lung cancer cells AS2 [1]; 48 hours): obvious
- proliferation inhibition/cells kill (lung cancer cells AS2 [1]; 48 hours): obvious
- moving speed versus placebo (only DMSO) (lung cancer cells AS2 [2]): much slower
